This note sets out measurements from US10336762B2 (priority 2017, dated 2019).

Structures are written as SMILES.

For test [1], the system named is TNFα. Briefly: cells. It counts as cell-based, human. Particulars: Homo sapiens, Monocyte, LPS-stimulated human monocytes, TNFα content; read-out: EC50 TNF.
Test [2] deals with IRAK4 enzyme (Homo sapiens (Human), UniProt Q9NWZ3). Briefly: biochemical. It counts as biochemical. The following applies: IRAK4 enzyme, 500 μM ATP.
IRAK4 enzyme, sequence (Q9NWZ3 whole entry): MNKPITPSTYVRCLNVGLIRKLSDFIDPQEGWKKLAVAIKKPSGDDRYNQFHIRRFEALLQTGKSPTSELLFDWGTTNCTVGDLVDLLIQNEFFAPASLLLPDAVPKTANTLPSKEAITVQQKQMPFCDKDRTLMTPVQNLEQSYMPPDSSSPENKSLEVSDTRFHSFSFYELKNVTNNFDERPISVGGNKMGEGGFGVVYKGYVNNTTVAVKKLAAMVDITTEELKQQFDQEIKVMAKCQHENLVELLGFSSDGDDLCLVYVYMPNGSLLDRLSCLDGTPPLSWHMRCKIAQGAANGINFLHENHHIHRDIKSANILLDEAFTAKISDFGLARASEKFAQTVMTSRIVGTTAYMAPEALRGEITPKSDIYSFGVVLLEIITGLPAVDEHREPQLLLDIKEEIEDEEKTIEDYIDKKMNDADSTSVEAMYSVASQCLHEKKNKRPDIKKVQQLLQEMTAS

Broadly, the EC50 is the concentration needed to bring the measured effect to its halfway point. As usually defined, the IC50 is the concentration needed to halve the response being measured. `CC(C)(O)[C@H](F)CNC(=O)c1cnc(-c2ccc3cc(C#N)cnn23)cc1Nc1ccn(Cc2ccccc2)n1` [Example 370, (R)-4-((1-benzyl-1H-pyrazol-3-yl)amino)-6-(3-cyanopyrrolo[1,2-b]pyridazin-7-yl)-N-(2-fluoro-3-hydroxy-3-methylbutyl)nicotinamide]: in test [1], the EC50 came to 10 nM. In addition, the IC50 in test [2] (TR-FRET) was found to be 1 nM.

In the case of `Cn1ccc(Nc2cc(-c3ccc4cc(C#N)cnn34)ncc2C(=O)NC[C@@H](F)C(C)(C)O)n1` [Example 371, (R)-6-(3-cyanopyrrolo[1,2-b]pyridazin-7-yl)-N-(2-fluoro-3-hydroxy-3-methylbutyl)-4-((1-methyl-1H-pyrazol-3-yl)amino)nicotinamide], the EC50 in test [1] came out at 61 nM. This compound gave a half-inhibitory concentration (IC50) in test [2] (TR-FRET) of less than 1 nM.

Take `CC(C)(O)[C@H](F)CNC(=O)c1cnc(-c2ccc3cc(C#N)cnn23)cc1NC12CC(C(N)=O)(C1)C2` [Example 373, (R)-4-((3-carbamoylbicyclo[1.1.1]pentan-1-yl)amino)-6-(3-cyanopyrrolo[1,2-b]pyridazin-7-yl)-N-(2-fluoro-3-hydroxy-3-methylbutyl)nicotinamide]: the EC50 in test [1] turned out to be 141 nM. Also, the IC50 in test [2] (TR-FRET) is less than 1 nM.

In the case of `CC(C)(O)[C@H](F)CNC(=O)c1cnc(-c2ccc3cc(C#N)cnn23)cc1Nc1nc(C(F)(F)F)cs1` [Example 374, (R)-6-(3-cyanopyrrolo[1,2-b]pyridazin-7-yl)-N-(2-fluoro-3-hydroxy-3-methylbutyl)-4-((4-(trifluoromethyl)thiazol-2-yl)amino)nicotinamide], the EC50 in test [1] came out at 327 nM. This compound had an IC50 in test [2] (TR-FRET) of 1 nM.

Consider `CC(C)(O)[C@H](F)CNC(=O)c1cnc(-c2ccc3cc(C#N)cnn23)cc1Nc1nccs1` [Example 375, (R)-6-(3-cyanopyrrolo[1,2-b]pyridazin-7-yl)-N-(2-fluoro-3-hydroxy-3-methylbutyl)-4-(thiazol-2-ylamino)nicotinamide], for which the EC50 in test [1] was found to be 110 nM. Moreover, the 50% inhibitory concentration (IC50) in test [2] (TR-FRET) was determined as 1 nM.

Take `COc1ccc2nc(Nc3cc(-c4ccc5cc(C#N)cnn45)ncc3C(=O)NC[C@@H](F)C(C)(C)O)sc2c1` [Example 376, (R)-6-(3-cyanopyrrolo[1,2-b]pyridazin-7-yl)-N-(2-fluoro-3-hydroxy-3-methylbutyl)-4-((6-methoxybenzo[d]thiazol-2-yl)amino)nicotinamide]: the EC50 in test [1] amounted to 736 nM. This compound came in with an IC50 in test [2] (TR-FRET) of 2 nM.

For the compound `CC(C)(O)[C@H](F)CNC(=O)c1cnc(-c2ccc3cc(C#N)cnn23)cc1NC12CC(C#N)(C1)C2` [Example 378, (R)-4-((3-cyano-bicyclo[1.1.1]pentan-1-yl)amino)-6-(3-cyano-pyrrolo[1,2-b]pyridazin-7-yl)-N-(2-fluoro-3-hydroxy-3-methylbutyl) nicotinamide], the EC50 in test [1] was determined as 38 nM. This compound also registered an IC50 in test [2] (TR-FRET) of less than 1 nM.

Turning to `CC(C)Nc1cc(-c2ccc3cc(C#N)cnn23)ncc1C(=O)NC12CC(C#N)(C1)C2` [Example 380, N-(3-cyanobicyclo[1.1.1]pentan-1-yl)-6-(3-cyano-pyrrolo[1,2-b]pyridazin-7-yl)-4-(isopropylamino) nicotinamide], the EC50 in test [1] was found to be 773 nM. In addition, the IC50 in test [2] (TR-FRET) was determined as 15 nM.

On to `CC(C)(O)[C@H](F)CNC(=O)c1cnc(-c2ccc3cc(C#N)cnn23)cc1Nc1ccc(C(N)=O)cc1` [Example 381], for which the EC50 in test [1] is 18 nM. This compound also registered an IC50 in test [2] (TR-FRET) of less than 1 nM.

With `CC(C)(O)[C@H](F)CNC(=O)c1cnc(-c2ccc3cc(C#N)cnn23)cc1Nc1ccccc1C(N)=O` [Example 382, (R)-4-((2-carbamoyl-phenyl)amino)-6-(3-cyanopyrrolo[1,2-b]pyridazin-7-yl)-N-(2-fluoro-3-hydroxy-3-methylbutyl)nicotinamide], the EC50 in test [1] came out at 586 nM. The same compound returned an IC50 in test [2] (TR-FRET) of 10 nM.

Consider `CC(C)(O)[C@H](F)CNC(=O)c1cnc(-c2ccc3cc(C#N)cnn23)cc1Nc1cccc(C(N)=O)c1` [Example 383, (R)-4-((3-carbamoyl-phenyl)amino)-6-(3-cyanopyrrolo[1,2-b]pyridazin-7-yl)-N-(2-fluoro-3-hydroxy-3-methylbutyl)nicotinamide], for which the EC50 in test [1] was found to be 144 nM. Besides, the half-inhibitory concentration (IC50) in test [2] (TR-FRET) is less than 1 nM.

With `CC(C)(O)[C@H](F)CNC(=O)c1cnc(-c2ccc3cc(C#N)cnn23)cc1Nc1cccc(F)c1` [Example 384, (R)-6-(3-cyanopyrrolo[1,2-b]pyridazin-7-yl)-N-(2-fluoro-3-hydroxy-3-methylbutyl)-4-((3-fluorophenyl)amino) nicotinamide], the EC50 in test [1] was found to be 129 nM. In addition, the half-inhibitory concentration (IC50) in test [2] (TR-FRET) came out at 1 nM.

Consider `CC(C)(O)[C@H](F)CNC(=O)c1cnc(-c2ccc3cc(C#N)cnn23)cc1Nc1ccc(-n2ccccc2=O)cc1` [Example 385, (R)-6-(3-cyanopyrrolo[1,2-b]pyridazin-7-yl)-N-(2-fluoro-3-hydroxy-3-methylbutyl)-4-((4-(2-oxopyridin-1(2H)-yl)phenyl)amino)nicotinamide], for which the EC50 in test [1] stood at 36 nM. Besides, in test [2] (TR-FRET), the IC50 was less than 1 nM.

On to `N#Cc1ccc(NC(=O)c2cnc(-c3ccc4cc(C#N)cnn34)cc2N[C@H]2CCC[C@@H](O)C2)nc1` [Example 386, 6-(3-cyanopyrrolo[1,2-b]pyridazin-7-yl)-N-(5-cyanopyridin-2-yl)-4-(((1S,3R)-3-hydroxycyclohexyl)amino)nicotinamide], for which the EC50 in test [1] was 2380 nM. The compound further had an IC50 in test [2] (TR-FRET) of 8 nM.

Take `COC(=O)NC1CCC(NC(=O)c2cnc(-c3ccc4cc(C#N)cnn34)cc2N[C@H]2CCCC(O)C2)CC1` (stereo partly drawn) [Example 387, methyl ((1S,4r)-4-(6-(3-cyanopyrrolo[1,2-b]pyridazin-7-yl)-4-(((1S,3R)-3-hydroxy-cyclohexyl)amino)nicotinamido)cyclohexyl)carbamate]: the EC50 in test [1] is 112 nM. In test [2] (TR-FRET), this compound returned an IC50 of 2 nM.

Regarding `C[C@]1(O)C[C@@H](Nc2cc(-c3ccc4cc(C#N)cnn34)ncc2C(=O)NCC#N)C1` [Example 388, N-(cyanomethyl)-6-(3-cyanopyrrolo[1,2-b]pyridazin-7-yl)-4-(((1s,3s)-3-hydroxy-3-methylcyclobutyl)amino) nicotinamide], the half-maximal effective concentration (EC50) in test [1] came out at 96 nM. In test [2] (TR-FRET), this compound displayed an IC50 of 1 nM.

As for `C[C@]1(O)C[C@H](Nc2cc(-c3ccc4cc(C#N)cnn34)ncc2C(=O)NCC#N)C1` [Example 389, N-(cyanomethyl)-6-(3-cyanopyrrolo[1,2-b]pyridazin-7-yl)-4-(((1r,3r)-3-hydroxy-3-methylcyclobutyl)amino) nicotinamide], the EC50 in test [1] was determined as 137 nM. In addition, the IC50 in test [2] (TR-FRET) stood at 3 nM.

Regarding `N#Cc1cnn2c(-c3cc(N[C@H]4CC[C@H](N5CCOC5=O)CC4)c(C(=O)NCC(N)=O)cn3)ccc2c1` [Example 390, N-(2-amino-2-oxoethyl)-6-(3-cyanopyrrolo[1,2-b]pyridazin-7-yl)-4-(((1r,4r)-4-(2-oxooxazolidin-3-yl)cyclohexyl)amino) nicotinamide], in test [1], the half-maximal effective concentration (EC50) is more than 10000 nM. The IC50 in test [2] (TR-FRET) is 6 nM.

As to `N#CCNC(=O)c1cnc(-c2ccc3cc(C#N)cnn23)cc1N[C@H]1CC[C@H](N2CCOC2=O)CC1` [Example 391, N-(cyanomethyl)-6-(3-cyanopyrrolo[1,2-b]pyridazin-7-yl)-4-(((1r,4r)-4-(2-oxooxazolidin-3-yl)cyclohexyl)amino) nicotinamide], the half-maximal effective concentration (EC50) in test [1] was 33 nM. Moreover, the IC50 in test [2] (TR-FRET) is less than 1 nM.

With `CC(C)(O)[C@H](F)CNC(=O)c1cnc(-c2ccc3cc(C#N)cnn23)cc1N[C@H]1CC[C@H](N2CCOC2=O)CC1` [Example 392, 6-(3-cyanopyrrolo[1,2-b]pyridazin-7-yl)-N-((R)-2-fluoro-3-hydroxy-3-methylbutyl)-4-(((1r,4R)-4-(2-oxooxazolidin-3-yl)cyclohexyl)amino) nicotinamide], in test [1], the 50% effective concentration (EC50) was found to be 50 nM. Moreover, the IC50 in test [2] (TR-FRET) was less than 1 nM.

With `CC(C)(O)[C@H](F)CNC(=O)c1cnc(-c2ccc3cc(C#N)cnn23)cc1NC12CCC(C(=O)N3CC(C(F)F)C3)(CC1)CC2` [Example 393, (R)-6-(3-cyanopyrrolo[1,2-b]pyridazin-7-yl)-4-((4-(3-(difluoromethyl)azetidine-1-carbonyl)bicyclo[2.2.2]octan-1-yl)amino)-N-(2-fluoro-3-hydroxy-3-methylbutyl)nicotinamide], the 50% effective concentration (EC50) in test [1] stood at 44 nM. Moreover, the half-maximal inhibitory concentration (IC50) in test [2] (TR-FRET) is less than 1 nM.

Turning to `CC1(F)CN(C(=O)C23CCC(Nc4cc(-c5ccc6cc(C#N)cnn56)ncc4C(=O)NC[C@@H](F)C(C)(C)O)(CC2)CC3)C1` [Example 394, (R)-6-(3-cyanopyrrolo[1,2-b]pyridazin-7-yl)-N-(2-fluoro-3-hydroxy-3-methylbutyl)-4-((4-(3-fluoro-3-methylazetidine-1-carbonyl)bicyclo[2.2.2]octan-1-yl)amino) nicotinamide], the EC50 in test [1] is 68 nM. Besides, the IC50 in test [2] (TR-FRET) stood at 1 nM.

In the case of `CC(C)(O)[C@H](F)CNC(=O)c1cnc(-c2ccc3cc(C#N)cnn23)cc1NC12CCC(C(=O)N3CCN(C4COC4)CC3)(CC1)CC2` [Example 395, (R)-6-(3-cyanopyrrolo[1,2-b]pyridazin-7-yl)-N-(2-fluoro-3-hydroxy-3-methylbutyl)-4-((4-(4-(oxetan-3-yl)piperazine-1-carbonyl)bicyclo[2.2.2]octan-1-yl)amino) nicotinamide], the EC50 in test [1] stood at 256 nM. In test [2] (TR-FRET), this compound showed an IC50 of 3 nM.

As to `COC1CN(C(=O)C23CCC(Nc4cc(-c5ccc6cc(C#N)cnn56)ncc4C(=O)NC[C@@H](F)C(C)(C)O)(CC2)CC3)C1` [Example 396, (R)-6-(3-cyanopyrrolo[1,2-b]pyridazin-7-yl)-N-(2-fluoro-3-hydroxy-3-methylbutyl)-4-((4-(3-methoxyazetidine-1-carbonyl)bicyclo[2.2.2]octan-1-yl)amino) nicotinamide], in test [1], the EC50 came out at 24 nM. In test [2] (TR-FRET), this compound yielded an IC50 of 1 nM.

For `COCCNC(=O)C12CCC(Nc3cc(-c4ccc5cc(C#N)cnn45)ncc3C(=O)NC[C@@H](F)C(C)(C)O)(CC1)CC2` [Example 397, (R)-6-(3-cyanopyrrolo[1,2-b]pyridazin-7-yl)-N-(2-fluoro-3-hydroxy-3-methylbutyl)-4-((4-((2-methoxyethyl)carbamoyl)bicyclo[2.2.2]octan-1-yl)amino)nicotinamide], in test [1], the concentration giving a half-maximal response (EC50) amounted to 30 nM. The same compound came in with an IC50 in test [2] (TR-FRET (HTRF)) of 1 nM.
